Measurements reported in patent US10940188B2, “Compounds and methods for treatment and prevention of Flavivirus infection” (priority 2016, dated 2021).

How the values were obtained:
ZIKV MR766 NS1 = assay: microbe, parasite or virus in culture; assay type: cell-based, Zika virus; conditions: Zika virus, HEK293, 48 h, read-out: NS1-IC50
Description: A one-step NS1 TR-FRET (Time-resolved fluorescence resonance energy transfer) assay for a screen of anti-ZIKV compounds was carried out. Human embryonic kidney cell line HEK293 cells were seeded into 384-well plates and infected with ZIKV MR766 at a MOI of 0.5 for 2 days. The FRET assay was performed with two clones of anti-NS1 antibody (ab) differentially labelled with donor and acceptor fluorophores.

HEK293 cells = assay: Toxicity IC50 (cell-killing activity) of the NS1 TR-FRET screen; assay type: cell-based, human; conditions: cell-killing activity
[1] = system: forebrain-specific hNPCs infected by FSS13025; assay: Immunostaining of ZIKV-infected forebrain-specific hNPCs (monolayer) for cleaved caspase-3 and ZIKVE; assay type: cell-based, human
Description: (§1) FIGS. 1A-1, 1A-2, 1A-3, 1B-1, 1B-2, 1C-1, and 1C-2. Emricasan suppresses cell death of ZIKV-infected human astrocytes and hNPCs in 2D monolayer cultures and 3D brain organoids. Emricasan (FIG. 1A-1) inhibits caspase-3 activity and improves cell viability in human astrocytes infected with three different strains of ZIKV in a concentration dependent manner. Value represent mean±s.d. (n=3). The curves (FIGS. 1A-2 and 1A-3) represent best fit. (FIG. 1B) Sample images of immunostaining (FIG. 1B-1) of forebrain-specific hNPCs for ZIKV envelop protein (ZIKVE; green) and cleaved-caspase 3 (Cas3; red) and DAPI (gray) 72 hours after ZIKV FSS-13025 infection (MOI=0.04-0.08; Scale bar: 20 μm), and quantification (FIG. 1B-2). Values represent mean±s.e.m. (n=3; **P<0.01; Student's t-test). Sample images (FIG. 1C-1) of immunostaining of day 28 human forebrain-specific organoids for ZIKVE (green) and Cas3 (red) and DAPI (gray) 10 days after ZIKV FSS-13025 infection (Scale bar: 100 μm), and quantification (FIG. 1C-2). Values represent mean±s.e.m. (n=6; ***P<0.001; Student's t-test).
Cells were fixed with 4% paraformaldehyde (Sigma) for 15 min at room temperature. Samples were permeabilized and blocked with 0.25% Triton X-100 (Sigma) and 10% donkey or goat serum in PBS for 20 min as previously described (Chiang et al., 2011; [41]; Yoon et al., 2014). […]

[2] = system: human forebrain-specific organoids infected by FSS13025; assay: Immunostaining of ZIKV-infected forebrain-specific organoids for cleaved caspase-3 and ZIKVE; assay type: cell-based; conditions: FSS13025 infection, 10 days
Description: as §1
Forebrain-specific organoids were generated from the C2-1 human iPSC line as previously described. Briefly, human iPSC colonies were detached 7 days after passage with Collagenase Type IV, washed with fresh stem cell medium and cultured in a 15 ml conical tube. […]

[3] = oral, BID, ×4 days, cited from earlier work

SMILES	IC50 (ZIKV MR766 NS1) [nM]	Tox IC50 (HEK293 cells)	number of cleaved caspase-3-expressing hNPCs, monolayer ([1]; FSS13025 infection, 72 hours)	suppression of ZIKV replication (ZIKV antigen in 2D and 3D cultures) ([1]; after Emricasan treatment)	number of cleaved caspase-3-expressing hNPCs, 3D organoid cultures [2]	maximum (Cmax) concentration in human blood [3] [ng/mL]	Cmax ([3]; read-out: maximum (Cmax) concentration in human blood, value in brackets) [µM]
CC[C@H]1CN2CCc3cc(OC)c(OC)cc3[C@@H]2C[C@@H]1C[C@H]1NCCc2cc(OC)c(OC)cc21 [Emetine]	114	No					
C[C@H](NC(=O)C(=O)Nc1ccccc1C(C)(C)C)C(=O)N[C@@H](CC(=O)O)C(=O)COc1c(F)c(F)cc(F)c1F [Emricasan]			reduced the number of active (cleaved) caspase-3-expressing forebrain-specific hNPCs	does not suppress ZIKV replication	reduced the number of active (cleaved) caspase-3-expressing forebrain-specific hNPCs	2360	4.15
